Where a SMILES comes first, the peptide text is derived from it. Where no end group is shown, it is not given here. The star is where a group is joined. For = O=C*
Key:
[1] = test system: FPRL1-GFP fusion protein-expressing CHO cells; experiment: Cell migration stimulating activity to FPRL1-GFP fusion protein-expressing CHO cells; type: cell-based, human; conditions: chemotaxis chamber, 37° C., 4 hours, FIG. 24
Experimental: Using FPRL1-GFP fusion protein-expressing CHO cells, which are described in Example 18, a cell migration activity of the above cells by stimulation using formylated peptide was investigated.
The 96-well disposable chemotaxis chamber (ChemoTx-96, Neuro Probe) was used for assay. Firstly, to bottom well of the chamber, a test sample diluted with DMEM (Invitrogen) containing 0.5% BSA was added. Then, a polycarbonate filter, which is precoated with 10 μg/ml bovine fibronectin (Yagai) on both sides, was fixed on the chamber, and contacted with the test sample. Next, suspension for FPRL1-GFP fusion protein-expressing CHO cells was put onto the filter at 96-well site as a droplet. The chamber was covered, and cultured at 37° C. for 4 hours under conditions of 5% CO2. The cell suspension was prepared as follows: the aforementioned CHO cells at growth phase, which had been precultured in 150 cm^2 flask for culture, were peal off using trypsin/EDTA; the cell suspension obtained was centrifuged to get cell precipitation; and after washing with PBS once, the cells were resuspended in DMEM medium containing 0.5% BSA at the concentration of 3.6×10^6 cells/ml. […] For this filter, absorbance at 595 nm was measured using microplate reader.

FPRL1-GFP fusion protein = experiment: Intracellular transition (internalization) of FPRL1-GFP fusion protein expressed in CHO cells; type: cell-based, human; conditions: 37° C., one hour, Cellomics ArrayScan
Experimental: CHO cell line, in which a protein, wherein GFP (Green Fluorescent Protein) is fused to the C-terminus of human FPRL1, is stably expressed, was established using an expression plasmid for animal cells by publicly known method. For assay of intracellular transition of the protein, the cells at growth phase was seeded at the concentration of 40000 cells/well on 96-well plate (Packard, View-Plate™-96, Black), and cultured for overnight at 37° C. under 5% CO2. Firstly, the cells into the well were washed with assay buffer (HBSS (GibcoBRL) supplemented with 0.1% bovine serum albumin (BSA)). Then, 100 μl of the assay buffer containing a test sample were added to the well and incubated at 37° C. under 5% CO2 for one hour. Subsequently, 100 μl/well of cell fixation solution (PBS containing 4% paraformaldehyde (Ca/Mg free)) were added to the well and stood at room temperature for 30 minutes. After removing the cell fixation solution and washing the cells with Ca/Mg free PBS, a labeling solution (3.13 μg/ml of wheat germ aggulutinin (Molecular Probe, W-849) and 5 μg/ml of Hoechst-containing Ca/Mg free PBS) was added (50 μl/well) and stood at room temperature for 20 minutes. After removing the labeling solution, the cells were washed with Ca/Mg free PBS (200 μl/well) to replace the same (200 μl/well). […]

human FPRL1 = target: T1, human FPRL1 (Homo sapiens, UniProt P25090); experiment: Inhibiting activity for intracellular cAMP production in human FPRL1-expressing CHO cells; type: cell-based; conditions: comparison of purified ligand and chemical preparation, FIG. 14
T1 construct: expressed in transfected cells; host or cells: CHO cells (clone No. 8)
T1 sequence (P25090 1-351): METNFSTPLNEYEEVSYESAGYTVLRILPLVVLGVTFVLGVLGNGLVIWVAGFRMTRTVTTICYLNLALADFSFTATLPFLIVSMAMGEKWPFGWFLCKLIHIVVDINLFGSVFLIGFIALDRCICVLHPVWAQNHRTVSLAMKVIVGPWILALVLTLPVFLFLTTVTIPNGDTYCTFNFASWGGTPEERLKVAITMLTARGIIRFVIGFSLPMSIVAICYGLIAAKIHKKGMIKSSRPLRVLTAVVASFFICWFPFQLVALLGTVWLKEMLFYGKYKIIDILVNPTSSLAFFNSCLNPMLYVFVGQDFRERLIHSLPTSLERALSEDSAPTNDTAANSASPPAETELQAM
Excerpt: The term “Peptide (nM)” on horizontal axis and “Inhibition (5)” on vertical axis means a concentration of peptide (nM) and an inhibiting activity for intracellular cAMP production (Inhibition (%)), respectively. Closed triangle represents an activity of the intrinsic FPRL1 ligand P1, which has been purified in Example 7. It is derived from fr. 24-25 of the final purified preparation uRPC C2/C18 SC2.1/10. The concentration for peptide is deduced from the absorbance at 215 nm of final purification chromatogram. Closed circle indicates an activity of 16 amino acid peptide containing N-terminal fifteen amino acids of porcine cytochrome B, at which synthetic N-terminus is formylated (formyl-MTNIRKSHPLMKIINN).
Activity of porcine intrinsic FPRL1 ligand P1, which was purified in Example 7, and activity of 16 amino acid-peptide (formyl-MTNIRKSHPLMKIINN, SEQ ID NO: 18), comprising 15 amino acids at N-terminus of N-terminally formylated porcine cytochrome B, wherein the sequence was deduced from structure analysis, were compared using an inhibiting activity for intracellular cAMP production in human […] CHO cells as an index (FIG. 14).

Compound: CSCC[C@H](NC=O)C(=O)N[C@@H](Cc1ccccc1)C(=O)N[C@@H](C)C(=O)N[C@@H](CC(=O)O)C(=O)N[C@@H](CCCNC(=N)N)C(=O)N[C@@H](Cc1c[nH]c2ccccc12)C(=O)N[C@@H](CC(C)C)C(=O)N[C@@H](Cc1ccccc1)C(=O)N[C@@H](CO)C(=O)N[C@H](C(=O)N[C@@H](CC(N)=O)C(=O)N[C@@H](Cc1c[nH]cn1)C(=O)N[C@@H](CCCCN)C(=O)O)[C@@H](C)O [hfCYOX-1(1-13)] (For-MFADRWLFSTNHK-OH; C-terminus assumed)
- cell migration stimulating activity (absorbance at 595 nm) [1]: bell-shaped dose-dependent cell migration stimulating activity
- intracellular transition of FPRL1-GFP protein (MemCyto Above Threshold) (FPRL1-GFP fusion protein): concentration-dependent transition of FPRL1-GFP protein from cell membrane to cytoplasm

Compound: CSCC[C@H](NC=O)C(=O)N[C@@H](Cc1ccccc1)C(=O)N[C@H](C(=O)N[C@@H](CC(N)=O)C(=O)N[C@@H](CCCNC(=N)N)C(=O)N[C@@H](Cc1c[nH]c2ccccc12)C(=O)N[C@@H](CC(C)C)C(=O)N[C@@H](Cc1ccc(O)cc1)C(=O)N[C@@H](CO)C(=O)N[C@H](C(=O)N[C@@H](CC(N)=O)C(=O)N[C@@H](Cc1c[nH]cn1)C(=O)N[C@@H](CCCCN)C(=O)O)[C@@H](C)O)C(C)C [pfCYOX-1(1-13)] (For-MFVNRWLYSTNHK-OH; C-terminus assumed)
- cell migration stimulating activity (absorbance at 595 nm) [1]: bell-shaped dose-dependent cell migration stimulating activity
- intracellular transition of FPRL1-GFP protein (MemCyto Above Threshold) (FPRL1-GFP fusion protein): concentration-dependent transition of FPRL1-GFP protein from cell membrane to cytoplasm

Compound: CHO-Met-Thr-Asn-Ile-Arg-Lys-Ser-His-Pro-Leu-Met-Lys-Ile-Ile-Asn ({CHO}-MTNIRKSHPLMKIIN) [porcine intrinsic FPRL1 ligand P1, purified from porcine stomach; N-terminal peptide of N-formylated porcine cytochrome b]
- inhibiting activity for intracellular cAMP production (human FPRL1): both activities are equivalent

Compound: formyl-MTNIRKSHPLMKIINN (For-MTNIRKSHPLMKIINN) [16 amino acid-peptide comprising 15 amino acids at N-terminus of N-terminally formylated porcine cytochrome B]
- inhibiting activity for intracellular cAMP production (human FPRL1): both activities are equivalent

— patent US7943137B2, “FPRL1 ligands and use thereof” (Takeda Pharmaceutical Company Limited, priority 2002, dated 2011)
